According to US20100021895A1, “Vectors for Inducing Homozygous Mutations and Methods of Using Same” (priority 2006, published 2010):

System: mouse embryonic stem cell clones, each containing a neomycin resistance gene (Neo) inserted by the GTR1.3 gene trap retrovirus
Assay: Carcinogen-induced LOH: frequency of colony formation in 2.0 mg/ml G418
Type: cell-based
Details: for enhanced colony formation, average: at least 25 entrapment lines
Description: Carcinogen-induced LOH was measured in a panel of 53 mouse embryonic stem cell clones, each containing a neomycin resistance gene (Neo) inserted into a different cellular gene (FIG. 9) by the GTR1.3 gene trap retrovirus. Gene entrapment by GTR1.3 involves selection for inserted Neo sequences that can splice to the 3′ ends of cellular genes (Lin et al.,). The disrupted genes were identified by sequencing Neo-gene fusion transcripts and were localized on the mouse genome. Previous studies have shown that cells homozygous for GTR1.3-induced mutations can be selected from heterozygous cells simply by selecting for resistance to higher concentrations of G418, a method first shown to select for homozygous mutations induced by gene targeting (15). Mitotic recombination appears to be the preferred mechanism of spontaneous LOH involving Neo genes inserted in ES cells (17) and LOH involving other genes and cell types in vivo (12, 13). LOH doubles the number of Neo genes per cell and thus allows moderately resistant cells to acquire resistance to higher concentrations of G418. The frequencies of spontaneous LOH measured at the 53 different sites ranged from 1.3×10^−5 to 1.2×10^−4 (Table 3), similar to those reported for other inserted neomycin resistance genes (15, 17) in ES cells and for loci such as TK and APRT in other cell types (12, 13).
A variety of chemical agents were tested for their ability to enhance the frequencies at which mutant cells survive in 2.0 mg/ml G418. Methyl-nitrosurea (MNU) is an alkylating agent that produces a variety of mono-methylated DNA adducts, hydroxyurea (HU) stalls DNA replication complexes, doxorubicin interferes with DNA synthesis, methothrexate is a competitive inhibitor of dihydrofolate reductase but is not genotoxic, diepoxybutane and mitomycin C induce inter-strand DNA crosslinks, UV irradiation causes intra- and inter-strand pyrimidine dimmers, and ethidium bromide intercalates between DNA strands to damage DNA (For additional information about these agents see http://toxnet.nlm.nih.gov and http://lisntweb.swan.ac.uk/cmgt/index.htm). […] The fold-increase for MNU and HU ranged from 39-123 and 18-68, respectively (Table 3). The optimal concentrations of each agent to stimulate colony formation with minimal toxicity (<5% loss of cell viability) were determined in advance (FIG. 13). […] Each of these agents was tested two or more times on at least 25 entrapment lines.
Serially diluted cells were plated onto 150 mm plates containing drug-free media and allowed to attach overnight. Unattached cells were removed and media containing the indicated concentrations of methyl-nitrosourea, hydroxyurea, ethidium bromide, doxorubicin, methotrexate, diepoxybutane, or mitomycin C was put onto cells for 4 hours (or cells were exposed to ultraviolet light in the absence of media and allowed to recover in drug-free media for 4 hours). Cells were then rinsed twice with drug-free media and selection media containing 0.0, 0.3, or 2.0 mg/ml G418 was put onto cells. After 12 days of selection, the number of colonies surviving was counted and the frequency of colony formation was determined by dividing the number of colonies obtained from 2.0 mg/ml G418 selection to that obtained from parallel experiments with 0.3 mg/ml G418 selection. TK gene loss was assessed following selection in media containing 2 μg/ml gancyclovir.
Table 3. The frequency of colony formation in high concentrations of G418. The frequency of colony formation is listed for all 53 clones examined. Frequency was determined by dividing the number of colonies surviving 2.0 mg/ml G418 selection to the number surviving parallel experiments with 0.3 mg/ml G418 selection, and is the average of at least 3 independent experiments for each clone. Standard deviations, which ranged from 5 to 70% of the mean values, have been omitted for clarity. […]

## CC[n+]1c(-c2ccccc2)c2cc(N)ccc2c2ccc(N)cc21 [EtBr, ethidium bromide]
Ethidium bromide 25 μg/ml
  effect on colony formation in high G418: no significant effect

## C1OC1C1CO1 (stereo not drawn) [diepoxybutane]
ES cells heterozygous for Xrcc5 entrapment mutation, 4 hours with 0.5 mM methyl-nitrosourea, 0.25 mM hydroxyurea or 100 ng/ml diepoxybutane
  survival of mutant ES cells in media containing 2.0 mg/ml G418: enhances the survival
Diepoxybutane 100 ng/mL
  enhanced colony formation, average: 16 fold

## CO[C@@]12[C@H](COC(N)=O)C3=C(C(=O)C(C)=C(N)C3=O)N1C[C@@H]1N[C@@H]12 [mitomycin C]
Mitomycin C 50 ng/mL
  enhanced colony formation, average: 14 fold

## COc1cccc2c1C(=O)c1c(O)c3c(c(O)c1C2=O)C[C@@](O)(C(=O)CO)C[C@@H]3O[C@H]1C[C@H](N)[C@H](O)[C@H](C)O1 [doxorubicin]
Doxorubicin 0.1 μM
  enhanced colony formation, average: 15 fold

## CN(Cc1cnc2nc(N)nc(N)c2n1)c1ccc(C(=O)N[C@@H](CCC(=O)O)C(=O)O)cc1 [methothrexate]
Methothrexate 50 μM
  effect on colony formation in high G418: no significant effect
